“Also recorded” adds a separate entry of the source.
What was measured:
[1] = system: NO synthase; assay: Cuff single pulse waveform after endothelial stimulation with NO synthase blocked; type: in vivo, human; settings: cuff inflated to 70 mmHg, FIG. 3
From the text: Both the amplitude and slope of the rising edge of the pulse increase markedly after endothelial stimulation.
In an artery with intact endothelial function, both pulse height (maximal cross-sectional arterial area) and compliance (maximum slope of the rising edge) increase markedly over baseline. […] FIG. 4 illustrates how a five minute cuff occlusion and the ensuring reactive hyperemia lead to major increases in area change per pulse and the maximum derivative of the area per pulse. Both metrics return to baseline levels after 20 minutes. FIG. 5 confirms the repeatability of the protocol by illustrating the effects of a series of two cuff occlusion periods. We see from FIG. 6 that only a small slow drift in the measured quantities occurs when no reactive hyperemic stimulus is applied.
A stimulus is then applied to the subject. Any of a number of stimuli expected to alter endothelial function are contemplated. Such stimuli include, for example, occlusion of blood flow, and/or application of one or more drugs to the subject. Illustrative drugs include, for example, drugs that act as NO agonists (e.g. acetylcholine), β2-adrenergic agonists such as albuterol, acoustic/mechanical tissue vibration, transcutaneous low frequency ultrasound (see, e.g., Iida et al. (2006) J. Amer. Coll. Cardiol., 48(3): 532-537), and the like. […]

[2] = system: human subjects; assay: Blood pressure cuff measurement of pulse amplitude (arterial area) and compliance response to sublingual nitroglycerin; type: in vivo; settings: 0.4 mg sublingual NG, FIG. 10, all cases where NG was administered
From the text: We contend that such studies are unnecessary in order to make a determination that a method is effective in assessing endothelial function. Physical methods for arterial EF evaluation typically measure changes in the material properties of the artery. […] A major advantage of this method is that response to NG is intact even in individuals with endothelial dysfunction, so there is no need to perform a correlation analysis between two measurements.
We examined three individuals in the age-range 28-38. All subjects had Framingham risk scores of 1% or less, and had no history of cardiovascular disease. Each individual was assessed at least three times before and after RH induced by five minutes of suprasystolic cuff occlusion. […] Sensitivity to a 0.4 mg dose of sublingual NG was assessed three times in two individuals.
Sensitivity to a 0.4 mg dose of sublingual NG was assessed three times in two individuals.
We studied a single quantity relating to the recorded pressure data: the pulse amplitude, which we posit is proportional to the arterial area. During the post stimulus interval, pressure data from the cuff were recorded approximately every 80 seconds, for a period of 30 seconds. During each recording interval, the cuff was inflated to 70 mmHg, which was always below the measured diastolic pressure of the subject. […]

## COC(=O)[C@@H](N)CCCNC(=N)N[N+](=O)[O-] [L-NAME]
[1]
  effect on increase of pulse amplitude (height) and slope of rising edge after endothelial stimulation: greatly attenuates this response; also recorded: greatly attenuated

## O=[N+]([O-])OCC(CO[N+](=O)[O-])O[N+](=O)[O-] [NG, nitroglycerin]
[2]
  increase in relative change in area: more than 30%
  increase in relative change in compliance: more than 30%

From patent US20140128747A1, “ASSESSING E[…] USING A BLOOD PRESSURE CUFF” (THE REGENTS OF THE UNIVERSITY OF CALIFORNIA, priority 2011, published 2014)
